Test results from the supplement of paper PMC4862054.
Several values for one entry are separate records, joined by “and”; a condition that tells them apart may be missing. Equal values may be shown once.

Assays:
HCC1143 [1] = experiment: drug sensitivity score (DSS), CellTox Green (DSS (AUC-based score)); higher = stronger drug effect (viability inhibition or cytotoxicity); extreme values may be limits of the assay; conditions: incubation time: 72 h
Outline: (§1)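 A drug sensitivity score was derived from the area under each fitted dose-response curve. Breast cancer cells (20 µl suspension) were seeded onto compound in 384-well plates, using 5 concentrations 10-fold apart over a compound-specific 10,000-fold range, and incubated 72 h. Readouts were CellTox Green fluorescence and then CellTiter-Glo luminescence, with every plate normalised to 0.1 % DMSO and a positive kill control.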

CAL-51 [2] = experiment: as above; conditions: incubation time: 72 h
Outline: as §1

MDA-MB-453 [3] = experiment: as above; conditions: incubation time: 72 h
Outline: as §1

CAL-120 [4] = experiment: normalised viability (% of control), CellTiter-Blue; higher = more viable cells (about 100 = DMSO control); conditions: incubation time: 72 h
Outline: (§2)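 Normalised viability is given for a single listed concentration of the series. In 384-well plates, breast cancer cell lines were incubated 72 h with compound, then read with CellTiter-Blue (2 h, 37 °C) at 560/590 nm. Per-plate scaling set vehicle to 100 and a positive kill control to 0, with Z'-factor quality control.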

BT-549 = experiment: as above; conditions: incubation time: 72 h
Outline: as §2

HCC1937 = experiment: as above; conditions: incubation time: 72 h
Outline: as §2

HDQ-P1 = experiment: as above; conditions: incubation time: 72 h
Outline: as §2

HCC1143 [5] = experiment: as above; conditions: incubation time: 72 h
Outline: as §2

HCC1599 = experiment: as above; conditions: incubation time: 72 h
Outline: as §2

BT-474 = experiment: as above; conditions: incubation time: 72 h
Outline: as §2

CAL-85-1 = experiment: as above; conditions: incubation time: 72 h
Outline: as §2

DU-4475 [6] = experiment: as above; conditions: incubation time: 72 h
Outline: as §2

CAL-148 = experiment: as above; conditions: incubation time: 72 h
Outline: as §2

SK-BR-3 = experiment: as above; conditions: incubation time: 72 h
Outline: as §2

CAL-51 [7] = experiment: as above; conditions: incubation time: 72 h
Outline: as §2

Hs578T = experiment: as above; conditions: incubation time: 72 h
Outline: as §2

MDA-MB-453 [8] = experiment: as above; conditions: incubation time: 72 h
Outline: as §2

MDA-MB-436 = experiment: as above; conditions: incubation time: 72 h
Outline: as §2

MFM-223 = experiment: as above; conditions: incubation time: 72 h
Outline: as §2

MDA-MB-231 = experiment: as above; conditions: incubation time: 72 h
Outline: as §2

MDA-MB-468 = experiment: as above; conditions: incubation time: 72 h
Outline: as §2

CAL-120 [9] = experiment: as above; conditions: 100 nM; incubation time: 72 h
Outline: as §2

DU-4475 [10] = experiment: as above; conditions: 10 nM; incubation time: 72 h
Outline: as §2

MDA-MB-453 [11] = experiment: as above; conditions: 10 nM; incubation time: 72 h
Outline: as §2

CC/C(=C(\c1ccc(O)cc1)c1ccc(OCCN(C)C)cc1)c1ccccc1 [4-hydroxytamoxifen]
drug sensitivity score (HCC1143 [1]): 1.54
drug sensitivity score (CAL-51 [2]): 0
drug sensitivity score (MDA-MB-453 [3]): 1

CCCCC/C=C/C=C1/C(=O)C=C[C@@H]1C/C=C\CCCC(=O)O [15D-PGJ2]
drug sensitivity score (HCC1143 [1]): 0
drug sensitivity score (CAL-51 [2]): 0
drug sensitivity score (MDA-MB-453 [3]): 0

CC(=O)OC[C@H]1O[C@@H]([S-])[C@H](OC(C)=O)[C@@H](OC(C)=O)[C@@H]1OC(C)=O.CCP(CC)CC.[Au+] [Auranofin]
drug sensitivity score (HCC1143 [1]): 0.33
drug sensitivity score (CAL-51 [2]): 3.46
drug sensitivity score (MDA-MB-453 [3]): 1.98

CS(=O)(=O)N1CCN(Cc2cc3nc(-c4cccc5[nH]ncc45)nc(N4CCOCC4)c3s2)CC1 [GDC-0941]
normalised viability (CAL-120 [4]; 10 nM): 89.6%
normalised viability (CAL-120 [4]; 1000 nM): 53.7%
normalised viability (CAL-120 [4]; 10000 nM): 20.8%
normalised viability (BT-549; 10 nM): 85.6%
normalised viability (BT-549; 1000 nM): 60.9%
normalised viability (BT-549; 10000 nM): 14.1%
normalised viability (HCC1937; 10 nM): 114%
normalised viability (HCC1937; 1000 nM): 60.8%
normalised viability (HCC1937; 10000 nM): 25.5%
normalised viability (HDQ-P1; 3 nM): 93.6%
normalised viability (HDQ-P1; 30 nM): 93.8%
normalised viability (HDQ-P1; 100 nM): 69.3%
normalised viability (HCC1143 [5]; 10 nM): 73.2%
normalised viability (HCC1143 [5]; 1000 nM): 52.1%
normalised viability (HCC1143 [5]; 10000 nM): 21.2%
normalised viability (HCC1599; 10 nM): 96.8%
normalised viability (HCC1599; 1000 nM): 55%
normalised viability (HCC1599; 10000 nM): 28%
normalised viability (BT-474; 10 nM): 109%
normalised viability (BT-474; 1000 nM): 41.3%
normalised viability (BT-474; 10000 nM): 11%
normalised viability (CAL-85-1; 30 nM): 77.7%
normalised viability (CAL-85-1; 100 nM): 83.5%
normalised viability (DU-4475 [6]; 3 nM): 107%
normalised viability (DU-4475 [6]; 30 nM): 98.8%
normalised viability (DU-4475 [6]; 100 nM): 95.5%
normalised viability (CAL-148; 3 nM): 82.4%
normalised viability (CAL-148; 30 nM): 85.8%
normalised viability (CAL-148; 100 nM): 83.2%
normalised viability (SK-BR-3; 10 nM): 92.3%
normalised viability (SK-BR-3; 1000 nM): 24.1%
normalised viability (SK-BR-3; 10000 nM): 8.8%
normalised viability (CAL-51 [7]; 3 nM): 117%
normalised viability (CAL-51 [7]; 30 nM): 106%
normalised viability (CAL-51 [7]; 100 nM): 89.4%
normalised viability (Hs578T; 10 nM): 112%
normalised viability (Hs578T; 1000 nM): 62.3%
normalised viability (Hs578T; 10000 nM): 19.6%
normalised viability (MDA-MB-453 [8]; 3 nM): 109%
normalised viability (MDA-MB-453 [8]; 30 nM): 85.1%
normalised viability (MDA-MB-453 [8]; 100 nM): 76.2%
normalised viability (MDA-MB-436; 10 nM): 97.7%
normalised viability (MDA-MB-436; 1000 nM): 68.1%
normalised viability (MDA-MB-436; 10000 nM): 22.9%
normalised viability (MFM-223; 10 nM): 95.7%
normalised viability (MFM-223; 1000 nM): 43.5%
normalised viability (MFM-223; 10000 nM): 13.1%
normalised viability (MDA-MB-231; 10 nM): 90.8%
normalised viability (MDA-MB-231; 1000 nM): 63.4%
normalised viability (MDA-MB-231; 10000 nM): 35.2%
normalised viability (MDA-MB-468; 10 nM): 108%
normalised viability (MDA-MB-468; 1000 nM): 62.8%
normalised viability (MDA-MB-468; 10000 nM): 17%
normalised viability (CAL-120 [9]): 75.5%
normalised viability (DU-4475 [10]): 108%

Cc1cccc(-c2nn3c(c2-c2ccnc4ccc(C(N)=O)cc24)CCC3)n1 [Galunisertib]
drug sensitivity score (HCC1143 [1]): 0
drug sensitivity score (CAL-51 [2]): 0
drug sensitivity score (MDA-MB-453 [3]): 0

COc1nc(N)nc2c1ncn2[C@@H]1O[C@H](CO)[C@@H](O)[C@@H]1O [Nelarabine]
drug sensitivity score (HCC1143 [1]): 0
drug sensitivity score (CAL-51 [2]): 0
drug sensitivity score (MDA-MB-453 [3]): 0
normalised viability (CAL-120 [4]; 10 nM): 109% and 93.6%
normalised viability (CAL-120 [4]; 1000 nM): 96.1% and 105%
normalised viability (CAL-120 [4]; 10000 nM): 95.9% and 107%
normalised viability (BT-549; 10 nM): 95.2% and 85.3%
normalised viability (BT-549; 1000 nM): 98% and 91%
normalised viability (BT-549; 10000 nM): 86.4% and 80.4%
normalised viability (HCC1937; 1000 nM): 109% and 93.9%
normalised viability (HCC1937; 10000 nM): 92.3% and 80.8%
normalised viability (HDQ-P1; 3 nM): 77.3% and 89.3%
normalised viability (HDQ-P1; 30 nM): 91.1% and 89.2%
normalised viability (HCC1143 [5]; 1000 nM): 103% and 88.2%
normalised viability (HCC1143 [5]; 10000 nM): 105% and 89.6%
normalised viability (HCC1599; 10 nM): 115% and 117%
normalised viability (HCC1599; 1000 nM): 108% and 123%
normalised viability (HCC1599; 10000 nM): 136% and 114%
normalised viability (BT-474; 10 nM): 96.7% and 102%
normalised viability (BT-474; 1000 nM): 92.1% and 93.3%
normalised viability (BT-474; 10000 nM): 92.8% and 94.6%
normalised viability (CAL-85-1; 3 nM): 99.3% and 102%
normalised viability (CAL-85-1; 30 nM): 98.7% and 100%
normalised viability (CAL-85-1; 100 nM): 101% and 102%
normalised viability (DU-4475 [6]; 3 nM): 117% and 116%
normalised viability (DU-4475 [6]; 30 nM): 97% and 101%
normalised viability (DU-4475 [6]; 100 nM): 106% and 126%
normalised viability (CAL-148; 3 nM): 92% and 97%
normalised viability (CAL-148; 30 nM): 94.7% and 93.5%
normalised viability (CAL-148; 100 nM): 95.4% and 91.8%
normalised viability (SK-BR-3; 10 nM): 93.9% and 93.6%
normalised viability (SK-BR-3; 10000 nM): 102% and 82.1%
normalised viability (CAL-51 [7]; 3 nM): 106% and 105%
normalised viability (CAL-51 [7]; 30 nM): 98.7% and 104%
normalised viability (CAL-51 [7]; 100 nM): 97.4% and 106%
normalised viability (Hs578T; 10 nM): 103% and 92.6%
normalised viability (Hs578T; 1000 nM): 103% and 95.2%
normalised viability (Hs578T; 10000 nM): 89.4% and 85.8%
normalised viability (MDA-MB-453 [8]; 3 nM): 93.2% and 104%
normalised viability (MDA-MB-453 [8]; 30 nM): 99.5% and 116%
normalised viability (MDA-MB-453 [8]; 100 nM): 93.8% and 101%
normalised viability (MDA-MB-436; 10000 nM): 91.2% and 94.8%
normalised viability (MFM-223; 10 nM): 108% and 111%
normalised viability (MFM-223; 1000 nM): 94.9% and 98.1%
normalised viability (MFM-223; 10000 nM): 103% and 104%
normalised viability (MDA-MB-231; 10 nM): 88.9% and 90.1%
normalised viability (MDA-MB-231; 1000 nM): 87.8% and 95%
normalised viability (MDA-MB-231; 10000 nM): 92.7% and 89.8%
normalised viability (MDA-MB-468; 10 nM): 97.3% and 99%
normalised viability (MDA-MB-468; 1000 nM): 93.2% and 93.8%
normalised viability (MDA-MB-468; 10000 nM): 94.3% and 93.1%
normalised viability (CAL-120 [9]): 112% and 101%
normalised viability (MDA-MB-453 [11]): 97.4% and 102%

CS(=O)(=O)N1CCN(Cc2cc3nc(-c4cccc5[nH]ncc45)nc(N4CCOCC4)c3s2)CC1 [Pictilisib]
drug sensitivity score (HCC1143 [1]): 0
drug sensitivity score (CAL-51 [2]): 4.02
drug sensitivity score (MDA-MB-453 [3]): 0

O=C(NC[C@H](O)CO)c1ccncc1Nc1ccc(I)cc1F [Pimasertib]
drug sensitivity score (HCC1143 [1]): 0
drug sensitivity score (CAL-51 [2]): 0
drug sensitivity score (MDA-MB-453 [3]): 0

Cn1cc(CNCC2CCN(c3ncc(C(=O)NO)cn3)CC2)c2ccccc21 [Quisinostat]
drug sensitivity score (HCC1143 [1]): 2.18
drug sensitivity score (CAL-51 [2]): 10.9
drug sensitivity score (MDA-MB-453 [3]): 0.347

CC(C)N(CCCNC(=O)Nc1ccc(C(C)(C)C)cc1)C[C@H]1O[C@@H](n2cc(Br)c3c(N)ncnc32)[C@H](O)[C@@H]1O [SGC0946]
drug sensitivity score (HCC1143 [1]): 0
drug sensitivity score (CAL-51 [2]): 0
drug sensitivity score (MDA-MB-453 [3]): 0
